# How the values were obtained:
# [1] = system: MART-127-35 epitope specific human primary CTL; experiment: AICD induction and quantitation in epitope specific primary CTL (tetramer/annexin V FACS); type: cell-based; conditions: pre-incubation about 45 min, restimulation with MART-127-35 peptide pulsed T2 cells, kinase inhibitors 25 μM, z-VAD-fmk 100 μM, Fc chimeras 10 μg/ml
# Experimental: FIG. 10. Effect of external death receptor blockade and MAP kinase inhibitors on AICD in the epitope specific CTLs upon secondary encounter of the cognate epitope. The CTLs were pre-incubated at optimal concentration for about 45 min. at about 37° C. with pan caspase inhibitor z-VAD-fmk (100 μM); human Fas/Fc chimera, human TNF-RI/Fc chimera, human TRAIL-RI/Fc chimera, human TRAIL-RII/Fc chimera and human IFN-γ RI/Fc chimeric proteins (10 μg/ml); p38 kinase inhibitor SB203580, JNK inhibitor anthra[1,9-cd]pyrazol-6(2H)-one (SP600125), […] inhibitor PD98059 (25 μM). Then the pretreated as well as untreated CTLs were incubated with T2 cells either alone or loaded with peptide. About 4 hours after secondary exposure cells were stained for determining: (A) Number of tetramer^+ cells out of the CD8^+ T cells [Top panel]; number of tetramer^+/Annexin V^+ and tetramer^+/Annexin^− populations [Bottom panel]. […] (B) Effect of the MAP kinase inhibitors on IFN-γ response by the effector cells.
# AICD induction and quantitation. AICD in the human primary CTL primed and expanded specifically for melanoma epitope MART-127-35 was induced by re-exposure of the CTLs to MART-127-35 peptide (1 μg/ml) as reported previously. Staurosporine mediated death was induced by exposure of CTL to 1 μM staurosporine for 4 hr. Quantitation of AICD and the effects of various inhibitors on AICD of CTLs, were carried out by annexin-V staining followed by FACS analyses as reported previously.
# In test whether or not the epitope specific primary CTLs undergo AICD, the activated CTLs were exposed to peptide [1 μg/ml] loaded T2 cells (Effector: Target=100) at different time points of the cultures. Thereafter, the evidence of apoptosis was determined by flow cytometry with triple color staining (CD8, MART-127-35/HLA-A2 tetramer and annexin V) at different time points (4-18 h). Experiments were carried out in triplicate wells and significance was calculated by One-way analysis of variance (ANOVA) using Sigma Stat statistical software, Chicago, Ill.
# To evaluate the effect of various agents in modulating AICD, the CTLs were pre-incubated with various compounds at optimal concentration for 45 min. at 37° C. and then exposed to T2 cells alone or loaded with peptide.
# [2] = system: Mart-1 primary CTLs; experiment: Mitochondrial transmembrane potential (DiOC6 staining); type: cell-based, human; conditions: induced by re-stimulation with cognate peptide; data not shown
# Experimental: (§1) FIG. 12. Effect of antigen specific secondary stimulation on mitochondrial transmembrane membrane potential (Δψm), pro- and anti-apoptotic protein and expression of cell surface molecules. (A) Differential effect on membrane polarization in Mart-1 primary CTLs (top panel) vs. Jurkat T cells (bottom panel). CTLs were incubated with T2 cells either alone or loaded with peptide. After overnight secondary exposure cells were stained with Mart-1 tetramer/CD8 and DiOC6. Histogram represents the fluorescence of DiOC6 in the gated antigen specific tetramer^+ population (top panel). Jurkat T cells were also analyzed for modulation of membrane potential after TCR-driven stimulation (bottom panel). Values represent the mean±SD of fluorescence intensity triplicates from one out of three separate experiment. *p<0.001 (One Way ANOVA). […] (C) Expression of different cell surface receptors for survival or death signal in antigen specific population upon secondary stimulation. Values on left upper corner represent the geometric mean of the fluorescence intensity for that particular marker when stimulated with T2/MAGE-3271-279 while that on right upper corner represent the geometric mean of the fluorescence intensity when stimulated with T2/MART-127-35.
# [3] = system: Bcl family proteins in CTL; experiment: Western blot of Bcl family pro- and anti-apoptotic proteins in CTL after secondary stimulation; type: cell-based, human
# Experimental: as §1
# Washed cell pellets were lysed in RIPA buffer and a cytosolic fraction was prepared by spinning the lysate at 15,000 rpm. Proteins (20 μg/well) were separated on 15% SDS-PAGE, transferred onto nitrocellulose filters, probed with appropriate antibodies. Antibodies for Bcl-2, phospho Bcl-2, Bim, BCI-XL, Bax, Actin were purchased from Santa-Cruz Biotechnology, Santa-Cruz, Calif. Anti-Mcl-1 antibody was purchased from BD Pharmingen, Palo Alto, Calif. Blots were developed by HRP-tagged secondary antibody (Santa-Cruz Biotechnology, Santa-Cruz, Calif.) using a chemoluminescence kit (Amersham Biosciences, Buckinghamshire, U. K.).
# [4] = system: MART-127-35 epitope specific primary CTL; experiment: DNA fragmentation analysis (agarose gel electrophoresis); type: cell-based, human; conditions: 1 μM staurosporine for 4 hr
# Experimental: Standard 2% agarose gel-electrophoresis (panel i) and pulse field DNA gel electrophoresis (panel ii) of: CTL in steady state (C) and after restimulation by the cognate peptide (M1).
# DNA fragmentation analysis. DNA fragmentation was assessed by measuring single stranded nick generation, using single stranded DNA nick specific antibody (Alexis Biochemicals, CA, USA) with flow-cytometry and immunofluorescence according to published protocols. Antibody-stained cells were counterstained with 0.1 μg/ml DAPI in PBS for 10 min. Agarose gel electrophoresis was used to detect small oligosomal DNA fragmentation and pulse field electrophoresis (Bio-Rad CHEF-DRIII) was used (6 V/cm, 20-60 sec pulse overnight) to detect large-scale DNA fragmentation.
# [5] = system: PARP cleavage in Jurkat cells; experiment: PARP cleavage in staurosporine treated Jurkat cells (immunoblot); type: cell-based, human
# Experimental: FIG. 1. […] (A) Effect of the JNK inhibitor SP600125 on AICD in the MART-127-35 epitope specific CTL. Histogram represents FACS analysis of the percent of MART-127-35 epitope specific CTLs that were tetramer positive and annexin negative after restimulation with MAGE-3271-279 control peptide (M3) pulsed T2 cells or MART-127-35 peptide (M1) pulsed T2 cells either alone or re-stimulated after pre-incubation with JNK inhibitor SP600125, p38-kinase inhibitor SB203580, ERK1/2 inhibitor PD98059 or caspase-inhibitor z-VAD-fink. MAGE-3271-279. (B) JNK activation results in phosphorylation of c-Jun during AICD in CTL that is blocked by SP600125. Immunoblots show analyses of CTL extracts probed with anti-phosphor-c-Jun, anti-c-Jun, and anti-actin antibodies. […] (i) Jurkat cells were treated with PMA+ionomycin in the absence or presence of SP600125 and JNK activation (c-Jun phosphorylation) was assessed with anti-phospho-c-Jun antibody. […] (ii) Jurkat cells were treated with Staurosporine for 1 and 4 hrs in the absence (S) or presence of caspase inhibitor, z-VAD-fmk (CI), JNK inhibitor, SP600125 (SP) or ERK1/2 inhibitor PD98059 (PD) and cleavage of PARP was detected by immunoblotting, using actin as a loading control. […] Percent annexin positive cells in all samples were quantified by FACS analysis and shown below the blot […]
# [6] = system: Jurkat cells; experiment: Staurosporine-induced death of Jurkat cells (annexin FACS); type: cell-based, human; conditions: annexin positive cells by FACS
# Experimental: FIG. 1. […] (A) Effect of the JNK inhibitor SP600125 on AICD in the MART-127-35 epitope specific CTL. Histogram represents FACS analysis of the percent of MART-127-35 epitope specific CTLs that were tetramer positive and annexin negative after restimulation with MAGE-3271-279 control peptide (M3) pulsed T2 cells or MART-127-35 peptide (M1) pulsed T2 cells either alone or re-stimulated after pre-incubation with JNK inhibitor SP600125, p38-kinase inhibitor SB203580, ERK1/2 inhibitor PD98059 or caspase-inhibitor z-VAD-fink. MAGE-3271-279. (B) JNK activation results in phosphorylation of c-Jun during AICD in CTL that is blocked by SP600125. Immunoblots show analyses of CTL extracts probed with anti-phosphor-c-Jun, anti-c-Jun, and anti-actin antibodies. […] (i) Jurkat cells were treated with PMA+ionomycin in the absence or presence of SP600125 and JNK activation (c-Jun phosphorylation) was assessed with anti-phospho-c-Jun antibody. […] (ii) Jurkat cells were treated with Staurosporine for 1 and 4 hrs in the absence (S) or presence of caspase inhibitor, z-VAD-fmk (CI), JNK inhibitor, SP600125 (SP) or ERK1/2 inhibitor PD98059 (PD) and cleavage of PARP was detected by immunoblotting, using actin as a loading control. […] Percent annexin positive cells in all samples were quantified by FACS analysis and shown below the blot
compound,measurement,setting,value
COc1cccc(-c2cc(=O)c3ccccc3o2)c1N [PD98059],protection/rescue of CTL from AICD,[1],could not protect
C[S+]([O-])c1ccc(-c2nc(-c3ccncc3)c(-c3ccc(F)cc3)[nH]2)cc1 (centres unmarked) [SB203580],protection/rescue of CTL from AICD,[1],could not protect
same,level of hyper polarization of mitochondrial transmembrane potential,[2],decreased
same,BCI-XL expression,[3],non-selectively up regulated
same,Bcl-2 expression,[3],non-selectively up regulated
CN[C@@H]1C[C@H]2O[C@@](C)([C@@H]1OC)n1c3ccccc3c3c4c(c5c6ccccc6n2c5c31)C(=O)NC4 [staurosporine],oligosomal DNA fragmentation,[4],clearly evident
same,PARP cleavage,[5]; Jurkat cells treated with staurosporine (1 μM),cleaved
z-VAD-fmk,protection/rescue of CTL from AICD,[1],could not protect
same,protection/rescue of CTL from AICD,[1]; listed as z-VAD-fink,did not prevent
same,effect on PARP cleavage induced by staurosporine,"[5]; Jurkat cells, z-VAD-fmk 100 μM, staurosporine 1 μM",blocked
same,protection from staurosporine-induced death,[6],protected
